Results as given in patent US20240207427A1, “SELECTIVE DRUG RELEASE FROM INTERNALIZED CONJUGATES OF BIOLOGICALLY ACTIVE COMPOUNDS” (priority 2021, published 2024).
Like-named read-outs stand apart in the source and are kept apart here.

Assays:
Assay type in all cases: cell-based
[1] = test system: renal carcinoma cells (786-O); test: In vitro potency (CellTiter-Glo, 96 h), 786-O; details: Homo sapiens, 786-0, 96 h
Procedure, shortened: (§1)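 Log-phase cells were seeded for 24 h in RPMI 1640 with 20% FBS, then exposed to serially diluted antibody-drug conjugates or free camptothecin drug for 4 days at 37 °C. Growth inhibition was read by luminescence, and IC50 values were reported in ng/mL and nmol/L.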

melanoma cells (A2058) = test: In vitro potency (CellTiter-Glo, 96 h), A2058; details: Homo sapiens, A2058, 96 h
Procedure, shortened: (§2)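 Antibody-drug conjugates, prepared as dilution series in culture medium, were added to cells seeded a day earlier in RPMI 1640 supplemented with 20% FBS. After four days at 37 °C, luminescence measured growth inhibition.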

[2] = test system: pancreatic cancer cells (BxPC3); test: In vitro potency (CellTiter-Glo, 96 h), BxPC3; details: Homo sapiens, BXPC-3, 96 h
Procedure, shortened: (§3)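 Medium: RPMI 1640 + 20% FBS. Pre-seeding: 24 h. Treatment: ADC or CPT free drug serial dilutions, 96 h, 37 °C. Read-out: luminescence; IC50 in ng/mL and nmol/L.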

[3] = test system: non-small-cell lung cancer cells (Calu1); test: In vitro potency (CellTiter-Glo, 96 h), Calu1; details: Homo sapiens, Calu-1, 96 h
Procedure, shortened: as §2

[4] = test system: anaplastic large cell lymphoma cells (DEL); test: In vitro potency (CellTiter-Glo, 96 h), DEL
Procedure, shortened: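 Four-day continuous exposure at 37 °C to serially diluted ADC or free camptothecin payload, in RPMI 1640 with 20% FBS after 24 h pre-plating. Luminescent signal gave IC50 (ng/mL; nmol/L).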

[5] = test system: anaplastic large cell lymphoma cells (DELBVR); test: In vitro potency (CellTiter-Glo, 96 h), DELBVR
Procedure, shortened: as §1

[6] = test system: anaplastic large cell lymphoma cells (Karpas299); test: In vitro potency (CellTiter-Glo, 96 h), Karpas299; details: Homo sapiens, KARPAS-299, 96 h
Procedure, shortened: as §1

[7] = test system: Hodgkin's lymphoma cells (L540cy); test: In vitro potency (CellTiter-Glo, 96 h), L540cy
Procedure, shortened: as §1

Ls174T cells = test: In vitro potency (CellTiter-Glo, 96 h), Ls174T; details: Homo sapiens, LS174T
Procedure, shortened: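 Growth inhibition after 96 h at 37 °C with test article, measured by luminescence; cells in RPMI 1640, 20% FBS.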

[8] = test system: breast cancer cells (MDA-MB-231); test: In vitro potency (CellTiter-Glo, 96 h), MDA-MB-231; details: Homo sapiens, MDA-MB-231, 96 h
Procedure, shortened: as §1

[9] = test system: acute myeloid leukemia cells (MOLM-13); test: In vitro potency (CellTiter-Glo, 96 h), MOLM-13; details: Homo sapiens, MOLM-13, 96 h
Procedure, shortened: as §3

[10] = test system: B-lymphocyte cancer cells (SU-DHL4); test: In vitro potency (CellTiter-Glo, 96 h), SU-DHL-4; details: Homo sapiens, SU-DHL-4, 96 h
Procedure, shortened: as §1

[11] = read-out: 786-O IC50, camptothecin free drug, 96 h
[12] = read-out: BxPC3 IC50, camptothecin free drug, 96 h
[13] = read-out: DEL IC50, camptothecin free drug, 96 h
[14] = read-out: DELBVR IC50, camptothecin free drug, 96 h
[15] = read-out: Karpas299 IC50, camptothecin free drug, 96 h
[16] = read-out: L540cy IC50, camptothecin free drug, 96 h
[17] = 96 h, read-out: Ls174T IC50, camptothecin free drug, 96 h
[18] = read-out: MDAMB231 IC50, camptothecin free drug, 96 h
[19] = read-out: MOLM-13 IC50, camptothecin free drug, 96 h
[20] = read-out: SU-DHL-4 IC50, camptothecin free drug, 96 h
[21] = CPT free drugs, Table 24, CellTiter-Glo after 96 h exposure, read-out: IC50 (nmol/L) 786-O
[22] = CPT free drugs, Table 24, CellTiter-Glo after 96 h exposure, read-out: IC50 (nmol/L) A2058
[23] = CPT free drugs, Table 24, CellTiter-Glo after 96 h exposure, read-out: IC50 (nmol/L) BxPC3
[24] = CPT free drugs, Table 24, CellTiter-Glo after 96 h exposure, read-out: IC50 (nmol/L) Calu1
[25] = CPT free drugs, Table 24, CellTiter-Glo after 96 h exposure, read-out: IC50 (nmol/L) DEL
[26] = CPT free drugs, Table 24, CellTiter-Glo after 96 h exposure, read-out: IC50 (nmol/L) DELBVR
[27] = CPT free drugs, Table 24, CellTiter-Glo after 96 h exposure, read-out: IC50 (nmol/L) Karpas299
[28] = CPT free drugs, Table 24, CellTiter-Glo after 96 h exposure, read-out: IC50 (nmol/L) L540cy
[29] = CPT free drugs, Table 24, CellTiter-Glo after 96 h exposure, read-out: IC50 (nmol/L) Ls174T
[30] = CPT free drugs, Table 24, CellTiter-Glo after 96 h exposure, read-out: IC50 (nmol/L) MDAMB231
[31] = CPT free drugs, Table 24, CellTiter-Glo after 96 h exposure, read-out: IC50 (nmol/L) MOLM-13
[32] = CPT free drugs, Table 24, CellTiter-Glo after 96 h exposure, read-out: IC50 (nmol/L) SU-DHL-4
[33] = camptothecin free drug, 96 h, read-out: 786-O IC50
[34] = camptothecin free drug, 96 h, read-out: A2058 IC50
[35] = camptothecin free drug, 96 h, read-out: BxPC3 IC50
[36] = camptothecin free drug, 96 h, read-out: Calu1 IC50
[37] = camptothecin free drug, read-out: DEL IC50
[38] = camptothecin free drug, read-out: DELBVR IC50
[39] = camptothecin free drug, 96 h, read-out: Karpas299 IC50
[40] = camptothecin free drug, read-out: L540cy IC50
[41] = camptothecin free drug, 96 h, read-out: MDAMB231 IC50
[42] = camptothecin free drug, 96 h, read-out: MOLM-13 IC50
[43] = camptothecin free drug, 96 h, read-out: SU-DHL-4 IC50

Compound	IC50 [1, 21] [nmol/L]	IC50 (melanoma cells (A2058); [22]) [nmol/L]	IC50 [2, 23] [nmol/L]	IC50 [3, 24] [nmol/L]	IC50 [4, 25] [nmol/L]	IC50 [5, 26] [nmol/L]	IC50 [6, 27] [nmol/L]	IC50 [7, 28] [nmol/L]	IC50 (Ls174T cells; [29]) [nmol/L]	IC50 [8, 30] [nmol/L]	IC50 [9, 31] [nmol/L]	IC50 [10, 32] [nmol/L]	other results
CC[C@@]1(O)C(=O)OCc2c1cc1n(c2=O)Cc2c-1nc1cc3c(cc1c2CNCC(O)CO)OCO3 (some centres unmarked) [Compound 7x]													IC50 [1, 11]: 88 nmol/L; IC50 (melanoma cells (A2058); read-out: A2058 IC50): 18 nmol/L; IC50 [2, 12]: 79 nmol/L; IC50 ([3]; read-out: Calu1 IC50): > 1000 nmol/L; IC50 [4, 13]: 16 nmol/L; IC50 [5, 14]: 20 nmol/L; IC50 [6, 15]: 54 nmol/L; IC50 [7, 16]: 32 nmol/L; IC50 (Ls174T cells; [17]): > 1000 nmol/L; IC50 [8, 18]: 523 nmol/L; IC50 [9, 19]: 574 nmol/L; IC50 [10, 20]: 41 nmol/L
CC[C@@]1(O)C(=O)OCc2c1cc1n(c2=O)Cc2c-1nc1cc3c(cc1c2CNCC(O)CN1CCCCC1)OCO3 (some centres unmarked) [Compound 7g]													IC50 [1, 11]: 33 nmol/L; IC50 (melanoma cells (A2058); read-out: A2058 IC50): 8 nmol/L; IC50 [2, 12]: 29 nmol/L; IC50 ([3]; read-out: Calu1 IC50): 486 nmol/L; IC50 [4, 13]: 8 nmol/L; IC50 [5, 14]: 14 nmol/L; IC50 [6, 15]: 29 nmol/L; IC50 [7, 16]: 14 nmol/L; IC50 (Ls174T cells; [17]): 18 nmol/L; IC50 [8, 18]: 116 nmol/L; IC50 [9, 19]: 56 nmol/L; IC50 [10, 20]: 18 nmol/L
CCc1c(C)c(F)cc2nc3c(c(CN)c12)Cn1c-3cc2c(c1=O)COC(=O)[C@]2(O)CC [Compound 10, (S)-11-(aminomethyl)-4,10-diethyl-8-fluoro-4-hydroxy-9-methyl-1,12-dihydro-14H-pyrano[3′,4′:6,7]indolizino[1,2-b]quinoline-3,14(4H)-dione]													IC50 ([1]; read-out: 786-O IC50, Table 28, CPT free drugs, renal carcinoma cells 786-O, 96 h, CellTiter-Glo): 54 nmol/L; IC50 (melanoma cells (A2058); read-out: A2058 IC50): 33 nmol/L; IC50 ([2]; read-out: BxPC3 IC50, Table 28, CPT free drugs, pancreatic cancer cells BxPC3, 96 h, CellTiter-Glo): 64 nmol/L; IC50 ([3]; read-out: Calu1 IC50): 95 nmol/L; IC50 ([4]; read-out: DEL IC50, Table 28, CPT free drugs, anaplastic large cell lymphoma cells DEL, CellTiter-Glo): 7 nmol/L; IC50 ([5]; read-out: DELBVR IC50, Table 28, CPT free drugs, anaplastic large cell lymphoma cells DELBVR, CellTiter-Glo): 15 nmol/L; IC50 ([6]; read-out: Karpas299 IC50, Table 28, CPT free drugs, anaplastic large cell lymphoma cells Karpas299, 96 h, CellTiter-Glo): 57 nmol/L; IC50 ([7]; read-out: L540cy IC50, Table 28, CPT free drugs, Hodgkin's lymphoma cells L540cy, CellTiter-Glo): 51 nmol/L; IC50 (Ls174T cells; 96 h, read-out: Ls174T IC50, Table 28, CPT free drugs, Ls174T cells, 96 h, CellTiter-Glo): 33 nmol/L; IC50 ([8]; read-out: MDAMB231 IC50, Table 28, CPT free drugs, breast cancer cells MDA-MB-231, 96 h, CellTiter-Glo): 59 nmol/L; IC50 ([9]; read-out: MOLM-13 IC50, Table 28, CPT free drugs, acute myeloid leukemia cells MOLM-13, 96 h, CellTiter-Glo): 149 nmol/L; IC50 ([10]; read-out: SU-DHL-4 IC50, Table 28, CPT free drugs, B-lymphocyte cancer cells SU-DHL4, 96 h, CellTiter-Glo): 15 nmol/L
CC[C@@]1(O)C(=O)OCc2c1cc1n(c2=O)Cc2c-1nc1cc(F)ccc1c2CN [Compound 2f]	6	2	9	40	1	1.2	6	3	3.9	4	11	4	
CC[C@@]1(O)C(=O)OCc2c1cc1n(c2=O)Cc2c-1nc1cc3c(cc1c2CN)OCO3 [AMDCPT, (5S)-14-(aminomethyl)-5-ethyl-5-hydroxy-7,18,20-trioxa-11,24-diazahexacyclo[11.11.0.02,11.04,9.015,23.017,21]tetracosa-1(13),2,4(9),14,16,21,23-heptaene-6,10-dione, reference compound]	1.9	0.7	3.6	14.4	0.4	0.8	1.8	1	1	1.4	4.3	1	IC50 [1, 33]: 3 nmol/L; IC50 (melanoma cells (A2058); [34]): 3 nmol/L; IC50 [2, 35]: 3 nmol/L; IC50 [3, 36]: 52 nmol/L; IC50 [4, 37]: 1 nmol/L; IC50 [5, 38]: 1 nmol/L; IC50 [6, 39]: 2 nmol/L; IC50 [7, 40]: 1 nmol/L; IC50 [8, 41]: 21 nmol/L; IC50 [9, 42]: 20 nmol/L; IC50 [10, 43]: 2 nmol/L
CC[C@@]1(O)C(=O)OCc2c1cc1n(c2=O)Cc2c-1nc1cc(F)c(OC)cc1c2CN [Compound 2i]	5	2	10	31	1	1	5	2	3.4	4	13	4	
CC[C@@]1(O)C(=O)OCc2c1cc1n(c2=O)Cc2c-1nc1cc(Cl)c(C)c(F)c1c2CN [Compound 2ab]	6	3	12	22	2	3	7	4	6	30	53	4	
CC[C@@]1(O)C(=O)OCc2c1cc1n(c2=O)Cc2c-1nc1cc3c(cc1c2CN1CCC(NC(=O)OC(C)(C)C)CC1)OCO3 [Compound 7y]													IC50 [1, 33]: 31 nmol/L; IC50 (melanoma cells (A2058); [34]): 7 nmol/L; IC50 [2, 35]: 28 nmol/L; IC50 [3, 36]: 896 nmol/L; IC50 [4, 37]: 8 nmol/L; IC50 [5, 38]: 14 nmol/L; IC50 [6, 39]: 36 nmol/L; IC50 [7, 40]: 15 nmol/L; IC50 (Ls174T cells; camptothecin free drug, 96 h, read-out: Ls174T IC50): 17 nmol/L; IC50 [8, 41]: 140 nmol/L; IC50 [9, 42]: 68 nmol/L; IC50 [10, 43]: 23 nmol/L
CC[C@@]1(O)C(=O)OCc2c1cc1n(c2=O)Cc2c-1nc1ccc(SC(F)(F)F)cc1c2CN [Compound 2r]	21	11	75	168	4.4	8.4	37	15	15.6	19	23	16	
CC[C@@]1(O)C(=O)OCc2c1cc1n(c2=O)Cc2c-1nc1cccc(F)c1c2CN [Compound 2p]	14	11	62	160	4	8	27	7	15.1	19	24	14	
CC[C@@]1(O)C(=O)OCc2c1cc1n(c2=O)Cc2c-1nc1cc(F)c(F)cc1c2CN [Compound 2l]	15	4	35	42	3.3	2.1	8	4	8.1	8	16	4	
